Data as given in patent publication US6743429B2 (Sherbrooke University, priority 1999, dated 2004).
Where no end group is shown, it is not given here.

Experiments:
sheep = test: Haemodynamic parameters and baseline SRL after inhaled administration in sheep; type: in vivo; conditions: inhaled increasing doses (CGRP 0.1, 0.25, 0.5 and 1.0 mg/2 ml)
Description: (§1) Eighteen sheep with a mean weight of 35 kg (range: 24 to 52 kg) were used for this study. […] Ten of these animals were defined as non-allergic and 8 as allergic, based on the absence or presence of both early and late airway responses after a standard inhalation challenge with Ascaris suum antigen. All sheep were allowed a 4-week recovery period after the allergen challenge before experimentation began. For each of the procedures hereafter presented, the unsedated animals were restrained on a standard shopping cart in the prone position and their heads were immobilized. […]
Briefly, pleural pressure was estimated via the esophageal balloon catheter (filled with 1 ml of air), which was positioned 5 to 10 cm from the gastroesophageal junction. […] Lateral pressure in the trachea was measured with a sidehole catheter (inner diameter=2.5 mm) advanced through and positioned distal to the tip of the endotracheal tube. […] The transpulmonary pressure and flow signals were recorded on a Hewlett Packard (model 7754B, Mass. USA) multichannel recorder, which was linked to a PC 386 Personal Computer (IBM Equipment, Montreal, Quebec) for online calculation of mean RL by dividing the change in transpulmonary pressure by the change in flow at mid-tidal volume (Vt) (obtained by digital integration). […]

allergic sheep [1] = test: Metacholine-induced non-specific airway responsiveness in allergic sheep; type: in vivo; conditions: inhaled 0.5 mg in 2 ml PBS
Description: as §1
(§2) The techniques used for investigating airway mechanics were again well-validated and standardized procedures (as is usually the case with large mammals). […] Lateral pressure in the trachea was measured with a sidehole catheter (inner diameter=2.5 mm) advanced through and positioned distal to the tip of the endotracheal tube. […] The transpulmonary pressure and flow signals were recorded on a Hewlett Packard (model 7754B, Mass. USA) multichannel recorder, which was linked to a PC 386 Personal Computer (IBM Equipment, Montreal, Quebec) for online calculation of mean RL by dividing the change in transpulmonary pressure by the change in flow at mid-tidal volume (Vt) (obtained by digital integration). […]

allergic sheep [2] = test: Ascaris suum antigen-induced early and late increases in pulmonary resistance in sheep; type: in vivo
Description: as §1, §2

allergic guinea pigs = test: Allergen (ovalbumin)-induced bronchospasm (PIP) in allergic guinea pigs; type: in vivo, guinea pig; conditions: CGRP receptor antagonist given 5 minutes before the allergen challenge
Method: Guinea pigs were anaesthetized with xylazine (20 mg/kg, i.m.) and ketamine hydrochloride (130 mg/kg, i.m.). The jugular vein and trachea were cannulated and animals were mechanically ventilated with a constant-volume rodent respirator (Havard, model 683) delivering a tidal volume of 5.5 ml/kg at a frequency of 60 cycles/min via the tracheal cannula. Airway resistance was measured by the overflow technique according to well-validated and standardized procedures. Briefly, ventilation overflow (i.e., the pulmonary insufflation pressure or PIP), was recorded at the side arm of the tracheal cannula by means of a differential pressure transducer (Gould P23 ID) connected to a Grass polygraph (model 7D). Airway responsiveness was assessed by measuring the changes in PIP following i.v. injections of the agonists. Changes in PIP, which were taken as an index of changed airway resistance, were measured and expressed in mm of mercury (mm Hg). Each agonist was injected through the jugular vein cannula in a volume of 100 μl followed by a washout with 200 μl of heparinized-saline (100 units/ml).
The resulting increase in PIP (bronchoconstriction) was compared to responses obtained in control animals i.e. in allergic guinea pigs, which received only saline solution 5 minutes before the i.v. injection of ovalbumin. […]

Row | Molecule | heart rate (sheep) | mean arterial blood pressure (MAP) (sheep) | protection against metacholine-induced increase in airway resistance (allergic sheep [1]) | effect on late phase bronchoconstriction to Ascaris suum antigen (allergic sheep [2]; aerosol 0.5 mg in 2 ml PBS pretreatment) | reduction of the peak of the early phase response to Ascaris suum antigen (allergic sheep [2]; aerosol 0.5 mg in 2 ml PBS, 20 minutes before antigen challenge) | magnitude of the allergen-induced bronchospasm versus untreated animals (allergic guinea pigs)
1 | CC(C)(C)NCC(O)c1ccc(O)c(CO)c1 (stereo not drawn) [salbutamol] | increase in heart rate | hypotension | 65% | does not affect | 45% | –
2 | hCGRP(8-37) (VTHRLAGLLSRSGGVVKNNFVPTNVGSKAF; ends and bridges not checked; UniProt P06881 90-119, looked up, fragment) [a CGRP receptor antagonist] | – | – | – | – | – | significant increase
